{"source": "patent US20030113913A1", "about": "“Method of enhancing self renewal of stem cells and uses thereof” (PETER MACCALLUM CANCER INSTITUTE, priority 2001, published 2003)", "key": {"[1]": {"tested_on": "lin− c-kit+ Sca-1+ CD45.2+ (LKS) murine hematopoietic precursors", "test": "Serial transplantation of LKS hematopoietic precursors cultured with or without ATRA (congenic mouse model)", "type": "in vivo", "conditions": "for donor repopulating levels of quaternary transplant recipients: CD45.2+ donor cells in peripheral blood, mean ± SEM", "method": "2000 FACS-enriched hematopoietic precursors (lin− c-kit+ Sca-1+) were added to wells containing media and cytokines (SCF, IL-6, IL-11 and Flt-3 ligand), and cultured without (No ATRA) or with (ATRA) 1 umol ATRA. Irradiated primary Ly5.1 recipients (6 mice per group) were transplanted with 100 000 normal Ly5.1 bone marrow cells together with 1000 noncultured (Start) Ly5.2 lin− c-kit+ Sca-1+ cells or with all cells that grew from 1000 of these precursors after 3 (3D) or 7 (7D) days in liquid suspension culture. Subsequent transplants (secondary, tertiary and quaternary) were performed using fractions of bone marrow harvested from the primary, secondary or tertiary, respectively, transplant recipients. Data are expressed as the mean +/− SEM donor cell reconstitution in the peripheral blood of transplanted recipients analyzed at 6 months (primary recipients) or 3 months (secondary, tertiary and quaternary recipients) post-transplant.\nThese studies may be proven using in vivo assays, preferably using small animal models, more preferably using the congenic mouse hematopoietic stem cell transplantation model. This model relies on the use of donor and recipient mice that can be distinguished from each other by the presence of different epitopes for the leukocyte common antigen, which is present on all white blood cells.\nIrradiated CD45.1+ primary murine recipients were transplanted with 1×10^5 normal CD45.1+ bone marrow cells together with 1000 freshly isolated lin− c-kit+ Sca-1+ CD45.2+ (LKS) murine hematopoietic precursors or with all cells that grew from 1000 LKS after 3 or 7 days of culture with or without 1 μM ATRA. Primary recipients were euthanased 6 months post-transplant, their femoral marrows flushed and pooled within treatment groups and bone marrow from 1/10th of a femur of these mice were injected into each secondary irradiated recipient. Subsequent serial transplants were likewise performed at 4 month intervals post-transplant, with the 5th serial transplant currently being assessed. Recipient mice were analysed for multilineage repopulating donor cells (>5% CD45.2+) in each round of transplants."}, "RARβ2": {"tested_on": "RARβ2", "test": "RT-PCR expression of RARβ2 in LKS+ and LKS− cells cultured with or without ATRA", "type": "cell-based, murine", "conditions": "cells derived from LKS+ and LKS− cultured with 1 μmol ATRA for 3, 7 or 14 days", "method": "FACS-enriched hematopoietic precursors (lin− c-kit+ Sca-1+ or lin− c-kit+ Sca-1−) were added to wells containing media and cytokines (SCF, IL-6, IL-11 and Flt-3 ligand), and cultured without (No ATRA) or with (+ATRA) 1 μmol ATRA for 3, 7 or 14 days. […] LKS+=lin− c-kit+ Sca-1+ cells, LKS−=lin− c-kit+ Sca-1− cells; D=day of culture.\n(§1) Consideration was then given to the expression of the different RARs by progeny derived from lin− c-kit+ Sca-1+ cells (LKS+) or lin− c-kit+ Sca-1− cells (LKS−) after they had been cultured with or without ATRA for 3, 7 and 14 days."}, "RARγ1": {"tested_on": "RARγ1", "test": "RT-PCR expression of RARγ1 in LKS+ and LKS− cells cultured with or without ATRA", "type": "cell-based, murine", "method": "FACS-enriched hematopoietic precursors (lin− c-kit+ Sca-1+ or lin− c-kit+ Sca-1−) were added to wells containing media and cytokines (SCF, IL-6, IL-11 and Flt-3 ligand), and cultured without (No ATRA) or with (+ATRA) 1 μmol ATRA for 3, 7 or 14 days. After culture, the cells were retrieved, mRNA prepared and expression of RAR γ 1 was analysed by RT-PCR methods. LKS+=lin− c-kit+ Sca-1+ cells, LKS−=lin− c-kit+ Sca-1− cells; D=day of culture.\nas §1"}}, "data": [{"smiles": "CC1=C(/C=C/C(C)=C/C=C/C(C)=C/C(=O)O)C(C)(C)CCC1", "note": "[ATRA, all trans-retinoic acid]", "values": [{"measurement": "donor repopulating levels of quaternary transplant recipients", "setting": "[1]; LKS cultured 3 days with 1 μM ATRA", "result": "20.09±8.63", "unit": "%"}, {"measurement": "donor repopulating levels of quaternary transplant recipients", "setting": "[1]; LKS cultured 7 days with 1 μM ATRA", "result": "14.98±5.94", "unit": "%"}, {"measurement": "multilineage donor reconstituting ability in serial transplant recipients", "setting": "[1]; all serial transplant recipients of 3 day and 7 day ATRA-treated LKS (1 μM)", "result": "significant multilineage donor reconstituting ability"}, {"measurement": "evidence of leukemia in recipient mice", "setting": "[1]; recipients of ATRA-treated LKS, successive rounds of transplants", "result": "nor was there any evidence of leukemia"}, {"measurement": "marrow cellularity of transplanted mice", "setting": "[1]; successive rounds of transplants, all treatment groups compared", "result": "no significant difference in marrow cellularity"}, {"measurement": "RARβ2 expression", "setting": "RARβ2", "result": "upregulates RARβ2 in cultured cells"}, {"measurement": "RARγ1 expression", "setting": "RARγ1; LKS+ cells cultured with 1 μmol ATRA for 3, 7 or 14 days", "result": "maintained"}, {"measurement": "RARγ1 expression", "setting": "RARγ1; LKS− cells cultured with 1 μmol ATRA", "result": "not expressed"}]}]}
